Measurements reported in PubChem BioAssay AID256 (DTP/NCI, 2004).
Toxic doses and inconclusive results are not listed. Rule for the calls: active = survival T/C of 150% or more; inactive = T/C below 125% in these data.

Test system: CD2F1 mice, L1210 leukemia ip, survival T/C
Experiment: NCI In Vivo Anticancer Drug Screen. Data for tumor model L1210 Leukemia (intraperitoneal) in CD2F1 (CDF1) mice
Settings: higher = longer survival
How it was run: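 Read-out first: treated-group measurement over vehicle-control measurement, expressed as a ratio. Animals bore a transplanted tumor line and were dosed with compound or vehicle.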

[1] = endpoint: mean survival time, dose: 100.0 mg/kg/injection, schedule: Q04DX003 (ip), vehicle: Klucel (hydroxypropylcellulose) (HPC)
[2] = endpoint: mean survival time, dose: 200.0 mg/kg/injection, schedule: Q04DX003 (ip), vehicle: Klucel (hydroxypropylcellulose) (HPC)
[3] = endpoint: mean survival time, dose: 100.0 mg/kg/injection, schedule: Q01DX009 (ip), vehicle: saline with Tween-80
[4] = endpoint: mean survival time, dose: 100.0 mg/kg/injection, schedule: Q04DX003 (ip), vehicle: saline with Tween-80
[5] = endpoint: mean survival time, dose: 200.0 mg/kg/injection, schedule: Q01DX009 (ip), vehicle: saline with Tween-80
[6] = endpoint: mean survival time, dose: 200.0 mg/kg/injection, schedule: Q04DX003 (ip), vehicle: saline with Tween-80
[7] = endpoint: mean survival time, dose: 400.0 mg/kg/injection, schedule: Q04DX003 (ip), vehicle: saline with Tween-80
[8] = endpoint: mean survival time, dose: 100.0 mg/kg/injection, schedule: Q01DX001 (ip), vehicle: saline
[9] = endpoint: mean survival time, dose: 200.0 mg/kg/injection, schedule: Q01DX001 (ip), vehicle: saline
[10] = endpoint: mean survival time, dose: 400.0 mg/kg/injection, schedule: Q01DX009 (ip), vehicle: saline with Tween-80
[11] = endpoint: mean survival time, dose: 100.0 mg/kg/injection, schedule: Q04DX003 (ip), vehicle: saline
[12] = endpoint: mean survival time, dose: 200.0 mg/kg/injection, schedule: Q04DX003 (ip), vehicle: saline
[13] = endpoint: mean survival time, dose: 50.0 mg/kg/injection, schedule: Q01DX009 (ip), vehicle: Klucel (hydroxypropylcellulose) (HPC)

Measured: T/C

OC1C2c3ccccc3C(c3c2ccc2ccccc32)C1O (stereo not drawn)
inactive: endpoint: median survival time, dose: 25.0 mg/kg/injection, schedule: Q04DX003 (ip), vehicle: saline with Tween-80 100 % of control | endpoint: median survival time, dose: 50.0 mg/kg/injection, schedule: Q04DX003 (ip), vehicle: saline with Tween-80 100 % of control | endpoint: median survival time, dose: 100.0 mg/kg/injection, schedule: Q04DX003 (ip), vehicle: saline with Tween-80 100 % of control | endpoint: median survival time, dose: 200.0 mg/kg/injection, schedule: Q04DX003 (ip), vehicle: saline with Tween-80 88 % of control

COc1cc2c(c(OC)c1OC)-c1ccc(OC)c(=O)cc1C(=O)CC2
inactive: endpoint: mean survival time, dose: 5.0 mg/kg/injection, schedule: Q01DX Z (ip), vehicle: saline 121 % of control | endpoint: mean survival time, dose: 7.0 mg/kg/injection, schedule: Q01DX Z (ip), vehicle: saline 121 % of control | endpoint: mean survival time, dose: 10.0 mg/kg/injection, schedule: Q01DX Z (ip), vehicle: saline 114 % of control

NC(=S)NNC(=O)c1ccccc1
inactive: [1] 91 % of control | [2] 91 % of control

CC1(C)C(CC(=O)O)CC1C(=O)O (stereo not drawn)
inactive: [3] 98 % of control | [4] 100 % of control | [5] 98 % of control | [6] 96 % of control | [7] 100 % of control

Cc1ccc(S(=O)(=O)NN=C2CC3CCC(C2)S3)cc1
inactive: endpoint: mean survival time, dose: 37.5 mg/kg/injection, schedule: Q01DX001 (ip), vehicle: saline with Tween-80 101 % of control | endpoint: mean survival time, dose: 75.0 mg/kg/injection, schedule: Q01DX001 (ip), vehicle: saline with Tween-80 104 % of control | endpoint: mean survival time, dose: 150.0 mg/kg/injection, schedule: Q01DX001 (ip), vehicle: saline with Tween-80 106 % of control

CCOC(=O)Nc1cc2c(ncn2-c2ccccc2)c(N)n1
inactive: endpoint: mean survival time, dose: 100.0 mg/kg/injection, schedule: Q01DX001 (ip), vehicle: Klucel (hydroxypropylcellulose) (HPC) 98 % of control | endpoint: mean survival time, dose: 200.0 mg/kg/injection, schedule: Q01DX001 (ip), vehicle: Klucel (hydroxypropylcellulose) (HPC) 96 % of control

CC(=O)c1cc(-c2ccccc2)nc2c(Cl)cc(Cl)cc12
inactive: [8] 102 % of control | [9] 91 % of control | endpoint: mean survival time, dose: 400.0 mg/kg/injection, schedule: Q01DX001 (ip), vehicle: saline 103 % of control

Cc1cc(C)c(B(c2c(C)cc(C)cc2C)c2c(C)cc(C)cc2C)c(C)c1
inactive: [3] 100 % of control | [5] 94 % of control | [6] 90 % of control | [10] 94 % of control | [7] 96 % of control

CCOC(=O)Nc1cc(C(F)(F)F)cc(C(F)(F)F)c1
inactive: [3] 94 % of control | [5] 94 % of control | [10] 96 % of control

CC(C)[NH-].CC(C)[NH-].O.O.[Cl][Pt+2][Cl]
inactive: endpoint: mean survival time, dose: 1.5 mg/kg/injection, schedule: Q01DX009 (ip), vehicle: saline 118 % of control | endpoint: mean survival time, dose: 1.57 mg/kg/injection, schedule: Q01DX009 (ip), vehicle: saline 115 % of control | [8] 112 % of control | [9] 90 % of control

O=C(Nc1cccc(C2=NCCN2)c1)c1ccc(C(=O)Nc2cccc(C3=NCCN3)c2)c(Cl)c1
inactive: endpoint: mean survival time, dose: 1.0 mg/kg/injection, schedule: Q01DX009 (ip), vehicle: saline 95 % of control | endpoint: mean survival time, dose: 2.0 mg/kg/injection, schedule: Q01DX009 (ip), vehicle: saline 92 % of control | endpoint: mean survival time, dose: 4.0 mg/kg/injection, schedule: Q01DX009 (ip), vehicle: saline 98 % of control | endpoint: mean survival time, dose: 8.0 mg/kg/injection, schedule: Q01DX009 (ip), vehicle: saline 113 % of control

COc1cc[n+](C)cc1
inactive: endpoint: mean survival time, dose: 100.0 mg/kg/injection, schedule: Q04DX002 (ip), vehicle: saline 100 % of control | endpoint: mean survival time, dose: 200.0 mg/kg/injection, schedule: Q04DX002 (ip), vehicle: saline 91 % of control | endpoint: mean survival time, dose: 400.0 mg/kg/injection, schedule: Q04DX002 (ip), vehicle: saline 95 % of control

O=C(O)c1ccc(Cl)c(N=C/C=C/c2ccccc2)c1
inactive: endpoint: mean survival time, dose: 75.0 mg/kg/injection, schedule: Q04DX003 (ip), vehicle: saline 97 % of control | endpoint: mean survival time, dose: 150.0 mg/kg/injection, schedule: Q04DX003 (ip), vehicle: saline 100 % of control | endpoint: mean survival time, dose: 300.0 mg/kg/injection, schedule: Q04DX003 (ip), vehicle: saline 100 % of control

Cc1cn(C2CC(O)C(CO)O2)c(=O)nc1N1CCCCCCC1 (stereo not drawn)
inactive: endpoint: median survival time, dose: 12.5 mg/kg/injection, schedule: Q01DX005 (ip), vehicle: water 102 % of control | endpoint: median survival time, dose: 25.0 mg/kg/injection, schedule: Q01DX005 (ip), vehicle: water 102 % of control | endpoint: median survival time, dose: 50.0 mg/kg/injection, schedule: Q01DX005 (ip), vehicle: water 102 % of control | endpoint: median survival time, dose: 100.0 mg/kg/injection, schedule: Q01DX005 (ip), vehicle: water 102 % of control | endpoint: median survival time, dose: 200.0 mg/kg/injection, schedule: Q01DX005 (ip), vehicle: water 103 % of control

[Cl][Ga]([Cl])[Cl]
inactive: endpoint: mean survival time, dose: 50.0 mg/kg/injection, schedule: Q04DX003 (ip), vehicle: saline 96 % of control | [8] 92 % of control | [11] 108 % of control | [9] 95 % of control

CC(NC(=O)CCl)C(=O)O (stereo not drawn)
inactive: [11] 94 % of control | [12] 100 % of control

CCSC1=NCCCS1
inactive: endpoint: mean survival time, dose: 75.0 mg/kg/injection, schedule: Q01DX001 (ip), vehicle: other 97 % of control | endpoint: mean survival time, dose: 150.0 mg/kg/injection, schedule: Q01DX001 (ip), vehicle: other 98 % of control | endpoint: mean survival time, dose: 300.0 mg/kg/injection, schedule: Q01DX001 (ip), vehicle: other 95 % of control

O=C1NC(=O)C2CC(Br)C(Br)CC12 (stereo not drawn)
inactive: endpoint: mean survival time, dose: 5.0 mg/kg/injection, schedule: Q01DX001 (ip), vehicle: saline 103 % of control | endpoint: mean survival time, dose: 10.0 mg/kg/injection, schedule: Q01DX001 (ip), vehicle: saline 101 % of control | endpoint: mean survival time, dose: 20.0 mg/kg/injection, schedule: Q01DX001 (ip), vehicle: saline 100 % of control

Cc1c2c(cc3c1CCC1(C)C3CCC1C(C)/C=C/C(C)C(C)C)CC(O)CC2 (stereo not drawn)
inactive: endpoint: mean survival time, dose: 100.0 mg/kg/injection, schedule: Q01DX001 (ip), vehicle: saline with Tween-80 92 % of control | endpoint: mean survival time, dose: 200.0 mg/kg/injection, schedule: Q01DX001 (ip), vehicle: saline with Tween-80 95 % of control | endpoint: mean survival time, dose: 400.0 mg/kg/injection, schedule: Q01DX001 (ip), vehicle: saline with Tween-80 92 % of control

CCOC(=O)c1ncc(Cl)cc1N
inactive: [13] 97 % of control

CC(C)CC(Br)C(=O)NCC(=O)O (stereo not drawn)
inactive: [4] 95 % of control | [6] 113 % of control | [7] 105 % of control

COc1ccc(NC(=O)Nc2nccs2)c(Cl)c1
inactive: [13] 98 % of control | endpoint: mean survival time, dose: 100.0 mg/kg/injection, schedule: Q01DX009 (ip), vehicle: Klucel (hydroxypropylcellulose) (HPC) 98 % of control | [1] 106 % of control | endpoint: mean survival time, dose: 200.0 mg/kg/injection, schedule: Q01DX009 (ip), vehicle: Klucel (hydroxypropylcellulose) (HPC) 87 % of control | [2] 102 % of control | endpoint: mean survival time, dose: 400.0 mg/kg/injection, schedule: Q04DX003 (ip), vehicle: Klucel (hydroxypropylcellulose) (HPC) 98 % of control

OCC1C(CO)C2CC1C1N=NN(c3ccccc3)C21 (stereo not drawn)
inactive: endpoint: mean survival time, dose: 100.0 mg/kg/injection, schedule: Q01DX001 (ip), vehicle: saline sonified 102 % of control | endpoint: mean survival time, dose: 200.0 mg/kg/injection, schedule: Q01DX001 (ip), vehicle: saline sonified 100 % of control | endpoint: mean survival time, dose: 400.0 mg/kg/injection, schedule: Q01DX001 (ip), vehicle: saline sonified 100 % of control

C=CCN(CC=C)CC=C
inactive: [11] 95 % of control | [12] 97 % of control | endpoint: mean survival time, dose: 400.0 mg/kg/injection, schedule: Q04DX003 (ip), vehicle: saline 93 % of control

N#C/C(=C\c1cc(Cl)cc(Cl)c1O)C(/C(C#N)=C/c1cc(Cl)cc(Cl)c1O)c1ccc2c(c1)OCO2 (stereo not drawn)
inactive: [3] 101 % of control | [4] 101 % of control | [5] 94 % of control | [6] 97 % of control | [10] 105 % of control | [7] 103 % of control

CC(=O)Nc1ccc2ccccc2c1-c1c(NC(C)=O)ccc2ccccc12
inactive: [4] 87 % of control | [7] 95 % of control

COC(=O)CSc1n[nH]c(=O)[nH]c1=O
inactive: endpoint: mean survival time, dose: 12.5 mg/kg/injection, schedule: Q01DX005 (ip), vehicle: distilled water + Tween-80 97 % of control | endpoint: mean survival time, dose: 25.0 mg/kg/injection, schedule: Q01DX005 (ip), vehicle: distilled water + Tween-80 100 % of control | endpoint: mean survival time, dose: 50.0 mg/kg/injection, schedule: Q01DX005 (ip), vehicle: distilled water + Tween-80 103 % of control | endpoint: mean survival time, dose: 100.0 mg/kg/injection, schedule: Q01DX005 (ip), vehicle: distilled water + Tween-80 94 % of control | endpoint: mean survival time, dose: 200.0 mg/kg/injection, schedule: Q01DX005 (ip), vehicle: distilled water + Tween-80 92 % of control
